Earlier results as cited in patent US9226944B2, “Herbal preparation for sleep apnea relief” (priority 2008, dated 2016).

Conditions: combined with the plant vs freed from the other constituents; heat accelerates decomposition

CN1C(CC(=O)c2ccccc2)CCCC1CC(O)c1ccccc1 (stereo not shown) [Lobeline, 2-[6-(2-hydroxy-2-phenyl-ethyl)-1-methyl-2-piperidyl]-1-phenyl-ethanone]
stability of lobeline: decomposes when freed from contact with the other constituents of the plant
